Experimental data reported in PMC6148290, “Endogenous metabolites of vitamin E limit inflammation by targeting 5-lipoxygenase” (Nature Communications, 2018).

Legend:
DPPH radical scavenging = experiment: DPPH radical scavenging
Procedure: Compounds were incubated with 2,2-diphenyl-1-picrylhydrazyl (DPPH, Sigma-Aldrich; […]) in ethanol for 30 min. Absorbance was measured at 520 nm using a Multiskan Spectrum Microplate Reader (Thermo Fisher Scientific)[35]. Ascorbic acid (Sigma-Aldrich; 50 µM), used as control, scavenged DPPH radicals by 82.4 ± 1.9%.

12-LO = molecular target: T1, 12-LO (Homo sapiens, UniProt P18054); experiment: 12-LO product formation in A23187/AA-activated PMNL; format: cell-based; settings: at 3 µM; mean ± s.e.m., n = 3; n.i. no inhibition
T1 construct: 12-HETE (12-LO product from platelets in PMNL preparations); endogenous in cells; host or cells: platelets contaminating human PMNL preparations
T1 sequence (P18054 1-663): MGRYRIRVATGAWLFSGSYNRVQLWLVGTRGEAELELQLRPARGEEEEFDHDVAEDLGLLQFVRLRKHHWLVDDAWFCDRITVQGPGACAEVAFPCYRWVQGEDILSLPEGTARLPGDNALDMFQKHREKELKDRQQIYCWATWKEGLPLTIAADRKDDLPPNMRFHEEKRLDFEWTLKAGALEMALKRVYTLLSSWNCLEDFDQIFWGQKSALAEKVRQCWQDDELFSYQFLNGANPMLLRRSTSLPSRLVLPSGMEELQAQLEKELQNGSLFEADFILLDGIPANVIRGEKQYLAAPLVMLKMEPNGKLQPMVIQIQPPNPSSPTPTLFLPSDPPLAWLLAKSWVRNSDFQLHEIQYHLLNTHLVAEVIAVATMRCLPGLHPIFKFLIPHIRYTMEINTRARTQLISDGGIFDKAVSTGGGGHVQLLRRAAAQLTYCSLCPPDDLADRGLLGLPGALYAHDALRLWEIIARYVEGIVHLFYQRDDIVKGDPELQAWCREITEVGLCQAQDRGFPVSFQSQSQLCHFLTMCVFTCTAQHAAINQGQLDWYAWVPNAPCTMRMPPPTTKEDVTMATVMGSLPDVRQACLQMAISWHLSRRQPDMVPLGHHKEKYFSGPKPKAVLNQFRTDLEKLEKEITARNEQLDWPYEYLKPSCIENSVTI
Procedure: (§1) Cells were washed and medium was exchanged. Freshly isolated PMNL (1 × 10^7) and stably transfected HEK-293 (1 × 10^6) cells were suspended in PBS pH 7.4 containing 1 mg/ml glucose and 1 mM CaCl2. […] A23187- and A23187/AA-treated PMNL and A23187/AA-treated HEK-293 (5-LO_wt), HEK-293 (5-LO_3W) and HEK-293 (5-LO_Arg101Asp) cells produced 135 ± 21, 636 ± 112, 300 ± 59, 133 ± 29, 55 ± 9 ng 5-LO products, respectively. PMNL synthesized 29 ± 6 ng 12-HETE and 97 ± 23 ng 15-HETE when challenged with A23187/AA. 5-LO products from monocytes were analyzed by UPLC-MS/MS.

[1] = cited from earlier work; for plasma levels in humans: ref Mangialasche et al., 2012
5-LO [2] = molecular target: T2, 5-LO (Homo sapiens, UniProt P09917); experiment: 5-LO product formation in activated PMNL; format: cell-based; design: Freshly isolated PMNL (1 × 10^7); endogenous in cells; host or cells: human PMNL freshly isolated from leukocyte concentrates; settings: cell-based; mean ± s.e.m., n = 3; read-out: IC50, activated PMNL (5-LO)
T2 sequence (P09917 1-674): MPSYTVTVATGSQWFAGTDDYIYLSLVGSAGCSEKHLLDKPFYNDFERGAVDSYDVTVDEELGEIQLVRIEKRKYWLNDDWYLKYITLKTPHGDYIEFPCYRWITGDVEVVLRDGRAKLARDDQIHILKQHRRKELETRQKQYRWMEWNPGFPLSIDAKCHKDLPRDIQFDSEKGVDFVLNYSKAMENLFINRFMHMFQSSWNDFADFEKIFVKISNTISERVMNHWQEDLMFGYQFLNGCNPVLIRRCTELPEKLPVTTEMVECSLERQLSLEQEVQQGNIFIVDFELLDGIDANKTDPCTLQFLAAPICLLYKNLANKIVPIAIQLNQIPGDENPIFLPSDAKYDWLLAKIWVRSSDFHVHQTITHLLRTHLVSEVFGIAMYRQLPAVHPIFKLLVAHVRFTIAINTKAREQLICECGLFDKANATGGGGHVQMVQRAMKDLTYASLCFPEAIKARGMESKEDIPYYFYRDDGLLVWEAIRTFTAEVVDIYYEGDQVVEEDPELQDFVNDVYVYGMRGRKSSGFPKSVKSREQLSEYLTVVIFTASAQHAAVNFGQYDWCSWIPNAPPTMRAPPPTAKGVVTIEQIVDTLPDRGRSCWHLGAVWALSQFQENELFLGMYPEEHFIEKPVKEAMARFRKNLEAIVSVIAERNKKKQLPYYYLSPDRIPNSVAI
Source text: Human PMNL, monocytes, PBMC, and platelets were freshly isolated from leukocyte concentrates. The protocols for experiments with human blood and blood cells were approved by the ethical commission of the Friedrich-Schiller-University Jena. […] PMNL were recovered from the pellet after hypotonic lysis of erythrocytes. Platelets were obtained from the supernatant and washed with PBS pH 5.9/0.9% NaCl (1:1). […]

5-LO [3] = molecular target: T2, 5-LO; experiment: Activity of purified human recombinant 5-LO (cell-free); format: biochemical; design: made in house; host or cells: E. coli Bl21 (DE3); settings: cell-free; mean ± s.e.m., n = 3; read-out: IC50, human recombinant 5-LO
Procedure: E. coli Bl21 (DE3) cells were transformed with pT3–5LO plasmid to express human recombinant 5-LO, which was purified by affinity chromatography on an ATP-agarose column. In brief, E. coli was lysed in 50 mM triethanolamine/HCl pH 8.0 plus EDTA (5 mM), soybean trypsin inhibitor (60 µg/ml), phenylmethanesulphonyl fluoride (1 mM), dithiothreitol (1 mM), and lysozyme (1 mg/ml). After sonication (3 × 15 s), the homogenate was centrifuged at 10,000 × g for 15 min and the supernatant again at 40,000 × g for 70 min at 4 °C. The supernatant was applied to an ATP-agarose column (Sigma-Aldrich), and the column was washed with (i) PBS pH 7.4, 1 mM EDTA, (ii) 50 mM phosphate buffer pH 7.4, 0.5 M NaCl, 1 mM EDTA, and (iii) 50 mM phosphate buffer pH 7.4, 1 mM EDTA. 5-LO was eluted with 50 mM phosphate buffer pH 7.4, 1 mM EDTA, 20 mM ATP.
Purified 5-LO (0.5 µg) in PBS pH 7.4 containing EDTA (1 mM) and ATP (1 mM) was pre-incubated with LCMs for 10 min at 4 °C, pre-warmed for 30 s at 37 °C and 5-LO product formation was started by addition of AA (Sigma-Aldrich; 20 µM if not indicated otherwise) plus CaCl2 (2 mM). […] AA was added after incubation for 5 min on ice.

[4] = tested on: peripheral blood mononuclear cells; experiment: Cell viability of PBMC (MTT assay); format: cell-based, human; settings: at 1 and 10 µM (one entry for both); 24 h; n.i. no inhibition
Procedure: The formazan product was solubilized with SDS (10% in 20 mM HCl), and absorbance was measured at 570 nm using a Multiskan Spectrum microplate reader (Thermo Fisher Scientific).

15-LO = 15-LO product formation in A23187/AA-activated PMNL; format: cell-based, human; settings: at 3 µM; mean ± s.e.m., n = 3; n.i. no inhibition
Procedure: as §1

[5] = tested on: zymosan-induced murine peritonitis; experiment: Zymosan-induced peritonitis in mice; format: in vivo, mouse; settings: 10 mg/kg i.p.; 30 min post zymosan; ELISA
Procedure: Mice were killed by inhalation of CO2 after another 30 min for determination of LTC4 levels and vascular permeability and after 4 h for the analysis of LTB4 levels, lipidomic profiles and immune cell infiltration. Cell infiltration and lipid mediator profiles during resolution were studied after 18 h. Peritoneal exudates were collected and cells counted after vital trypan blue staining. LTC4, LTB4, and PGE2 were analyzed in the exudate by enzyme immunoassays (Enzo Life Sciences, Lörrach, Germany) according to manufacturer's instructions. To assess vascular permeability, Evans blue dye (40 mg/kg in saline, 0.3 ml; Sigma-Aldrich) was injected into the tail vain immediately before the induction of peritonitis. Exudates were centrifuged (3000 × g, 5 min) and the absorbance of the supernatants was measured at 610 nm using a Beckman Coulter DU730 spectrophotometer. To investigate the effect of α-T (1a) on the accumulation of α-T-13'-COOH (4a) in infiltrated leukocytes after peritonitis has been established, vehicle or α-[…].) were given 1 h before and/or 4 h post zymosan injection, and mice were killed after another 1.5 h. Leukocytes were obtained from peritoneal exudates by centrifugation (1200 × g, 10 min, 4 °C).

[6] = molecular target: T3, human recombinant LTC4 synthase (LTC4S) (Homo sapiens, UniProt Q16873); experiment: LTC4 synthase activity; format: biochemical; settings: 10 µM; reference inhibitor
T3 construct: expressed in transfected cells; host or cells: HEK-293 cells stably expressing LTC4S (microsomal membranes)
T3 sequence (Q16873 1-150): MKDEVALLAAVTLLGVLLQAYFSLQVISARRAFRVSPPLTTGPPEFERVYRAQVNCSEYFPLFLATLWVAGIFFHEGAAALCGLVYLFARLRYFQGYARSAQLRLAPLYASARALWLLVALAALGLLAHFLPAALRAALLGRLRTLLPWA
Procedure: To investigate the effect of LCMs on LTC4S activity, we used microsomal membranes from HEK-293 cells stably expressing LTC4S[70]. […] The conversion of LTA4 to LTC4 methyl esters was initiated by addition of LTA4 methyl ester (Cayman Chemicals; 1 µM). After 10 min at 4 °C, the reaction was terminated by ice-cold methanol (one volume), and LTC-d5 methyl ester (5 ng; Cayman Chemicals) was added as internal standard. LTC4 was extracted and analyzed by UPLC-MS/MS as described for lipid mediators. Vehicle (DMSO)-treated microsomal membranes produced 7.1 ± 0.5 nmol LTC4.

[7] = Water solubility (statement); format: physicochemical; settings: authors' statement in reply to reviewer
intracellular Ca^2+ = experiment: Intracellular Ca2+ in fMLP-stimulated PMNL; format: cell-based, human
Procedure: PMNL (1 × 10^6) were incubated with Fura-2/AM (Thermo Fisher Scientific; 2 nmol) for 45 min at 37 °C, washed, resuspended in PBS pH 7.4 plus 1 mg/ml glucose and transferred to fluorescene 96-well microplates (Greiner). After pre-incubation with compounds for 10 min, 1 mM Ca^2+ was added, and cells were stimulated with fMLP (1 µM) for another 10 min. Intracellular Ca^2+ concentrations were determined using a thermally (37 °C) controlled NOVOstar fluorescence microplate reader [BMG Labtech, Ortenberg, Germany; emission at 510 nm, excitation at 340 nm (Ca^2+-bound Fura-2) and 380 nm (free Fura-2)][17]. The maximal fluorescence signal was recorded after lysis of […] with Triton X-100, and the minimal fluorescence was assessed by adding 20 mM EDTA to chelate Ca^2+. The difference in the signal ratio obtained with Triton X-100 and Triton X-100 plus 20 mM EDTA was set to 100% for each experiment.

| Structure (SMILES) | 12-LO product formation/PMNL, residual activity (12-LO) | IC50 (5-LO [2]) [nM] | IC50 (5-LO [3]) [nM] | Cell viability/peripheral blood mononuclear cells, residual viability [4] | 15-LO product formation/PMNL, residual activity (15-LO) | further results |
| --- | --- | --- | --- | --- | --- | --- |
| O=C1O[C@H]([C@@H](O)CO)C(O)=C1O [Ascorbic acid, reference compound] | – | – | – | – | – | DPPH radicals scavenged (DPPH radical scavenging; 50 µM, control): 82.4 ± 1.9% |
| Cc1cc(O)cc2c1O[C@](C)(CCC[C@H](C)CCC[C@H](C)CCCC(C)C)CC2 [1d] | n.i. | 85000 ± 5000 | 310 ± 100 | n.i. | 86.6 ± 15.8 % of control | plasma levels in humans [1]: 0.01 µM |
| Cc1c(C)c2c(c(C)c1O)CC[C@@](C)(CCC[C@H](C)CCC[C@H](C)CCCC(C)C)O2 [1a, α-tocopherol] | n.i. | 808000 ± 159000 | > 1000 | n.i. | n.i. | LTC4 levels in the exudate [5]: significantly less effective; plasma levels in humans [1]: 25 to 35 µM; hepatic tissue concentrations ([1]; ref Nagita et al., 1997): 70 to 530 nmol/g; human plasma level ([1]; ref Nagita et al., 1997): 14 to 27 µM |
| CC(C)c1ccc2c(c1)c(SC(C)(C)C)c(CC(C)(C)C(=O)O)n2Cc1ccc(Cl)cc1 [MK-886, reference compound] | – | – | – | – | – | suppression of LTC4 formation [6]: 95.6 ± 0.9% |
| Cc1cc(O)cc2c1O[C@](C)(CCC[C@H](C)CCC[C@H](C)CCCC(C)CO)CC2 (some centres unmarked) [2d] | 84.8 ± 7.8 % of control | 540 ± 20 | 120 ± 40 | n.i. | 142.8 ± 13.9 % of control | – |
| Cc1c(O)cc2c(c1C)O[C@](C)(CCC[C@H](C)CCC[C@H](C)CCCC(C)C)CC2 [1c] | n.i. | 502000 ± 199000 | 910 ± 150 | n.i. | n.i. | – |
| CC(C)=CCC/C(C)=C/CC/C(C)=C/CC[C@]1(C)CCc2cc(O)cc(C)c2O1 [1h] | 87.6 ± 8.5 % of control | 60000 ± 15000 | 170 ± 100 | n.i. | n.i. | – |
| C/C(=C\CC/C(C)=C/CC[C@]1(C)CCc2cc(O)cc(C)c2O1)CC/C=C(\C)C(=O)O [4h, garcinoic acid] | 75.1 ± 12.1 % of control | – | – | n.i. | 128.6 ± 42.3 % of control | water solubility [7]: poor; radical scavenging as measure for antioxidant activity (DPPH radical scavenging; DPPH): only evident at micromolar; concentration at which intracellular Ca^2+-influx was significantly reduced (intracellular Ca^2+): ≥ 1 µM |
